Measured values reported in article PMC3499775 (Journal of pharmaceutical and biomedical analysis, 2012).

Biological target: T1, breast cancer resistance protein (BCRP) (Homo sapiens, UniProt Q9UNQ0)
T1 sequence (Q9UNQ0 1-655): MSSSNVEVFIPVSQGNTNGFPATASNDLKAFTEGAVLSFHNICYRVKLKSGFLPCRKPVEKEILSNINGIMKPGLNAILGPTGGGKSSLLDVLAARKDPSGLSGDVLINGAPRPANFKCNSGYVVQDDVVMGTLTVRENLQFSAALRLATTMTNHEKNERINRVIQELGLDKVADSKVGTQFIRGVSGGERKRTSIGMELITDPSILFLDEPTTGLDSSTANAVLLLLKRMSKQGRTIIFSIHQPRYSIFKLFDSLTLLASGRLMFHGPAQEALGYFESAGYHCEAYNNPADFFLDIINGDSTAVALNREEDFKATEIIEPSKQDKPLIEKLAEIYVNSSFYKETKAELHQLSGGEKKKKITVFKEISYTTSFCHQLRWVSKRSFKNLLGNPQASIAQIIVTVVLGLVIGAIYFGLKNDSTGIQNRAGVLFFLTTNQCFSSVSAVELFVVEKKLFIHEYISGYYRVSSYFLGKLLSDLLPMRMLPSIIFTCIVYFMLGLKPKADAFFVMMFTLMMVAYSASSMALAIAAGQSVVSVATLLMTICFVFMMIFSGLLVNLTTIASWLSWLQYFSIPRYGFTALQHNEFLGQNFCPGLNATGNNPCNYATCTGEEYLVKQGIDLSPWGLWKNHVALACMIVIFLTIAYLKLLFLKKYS
Test: frontal displacement affinity chromatography
Format: binding
Details: nmac-bcrp column

SMILES	Kd
COc1ccc(-c2coc3cc(O)cc(O)c3c2=O)cc1 [Biochanin A]	1.05 µM
COc1cc([C@@H]2c3cc4c(cc3[C@@H](O[C@@H]3O[C@@H]5CO[C@@H](C)O[C@H]5[C@H](O)[C@H]3O)[C@H]3COC(=O)[C@H]23)OCO4)cc(OC)c1O [Etoposide]	4.55 µM
COc1ccc2c3c([nH]c2c1)[C@H](C=C(C)C)N1C(=O)[C@@H]2CCCN2C(=O)[C@@H]1C3 [FTC, Fumitremorgin C]	1.63 µM
